Results taken from patent publication US20260306460A1, “COMPOSITION FOR REMOVING AND INHIBITING SENESCENT CELLS, AND USES THEREOF” (LIFECEUTIX CO., LTD., priority 2023, published 2026).

Tests used:
Type in all cases: in vivo, mouse
naturally aged mice = experiment: Open field test in naturally aged mice, Example 15; settings: untreated aged = 100%; 5 days; doses as p16 mRNA
Experimental: In the same manner as in Example 7-1 of WO2023-085787 A1, naturally aged mice were administered LX-405 (5% DMSO in PBS solution, 10 mg/kg, intraperitoneal administration), LX-801 (PBS, 100 mg/kg, intraperitoneal administration), LX-1102 (0.5% CMC-Na solution, 100 mg/kg, oral administration), LX-1801 (PBS, 50 mg/kg, intraperitoneal administration), LX-2101 (0.5% CMC-Na solution, 10 mg/kg, intraperitoneal administration), and LX-3403 (mouse anti-PD-1 antibody (BioXcell), 100 μg, intraperitoneal administration) for 5 days under the following conditions. The control group was administered only the solution in the same volume. After drug administration was completed, the method described in each Example below was performed. The mouse was sacrificed in the same manner as Example 7-2 and 7-6 of WO2023-085787 A1. Total RNA was extracted from liver tissue, and qRT-PCR was performed and analyzed using synthesized cDNA. […] The mRNA amounts of p16, MMP3, and IL6 after natural aging were induced were calculated as 100% and compared them with the mRNA amounts of p16, MMP3, and IL6 after treatment with the test compound. Furthermore, an open field test was performed to analyze aging-related frailty in mice using the same method as Example 7-7 of WO2023-085787 A1. […] The amount of activity evaluated after inducing aging was calculated as 100% and compared it with the amount of activity evaluated after treatment with the test compound.

[1] = tested on: naturally aged C57BL6J mice; experiment: Osteoclast marker mRNA (Ctsk, Ocstamp, Oscar, Rank, Trap) in femur of naturally aged mice, Example 21-14, Table 29; settings: left femur, untreated aged = 100%
Experimental: 22-month-old female C57BL6J mice (KRIBB Laboratory Animal Resource Center) were acclimated to the experimental environment for one week, after which the aged mice were randomly assigned to experimental and control groups. Eight-week-old, non-aged mice served as controls. LX-403 was mixed in a 10% ethanol solution of PEG400 and administered orally at a concentration of 25 mg/kg daily for 21 days, or administered to the skin, joints, or eyes at a concentration of 1 μM. LX-1801 was mixed in distilled water with 4% DMSO, 30% PEG300, and 5% Tween80 and administered to the skin, joints, or eyes at a concentration of 0.4 μM daily for 21 days. LX-2001 was mixed in PBS and administered to the skin, joints, or eyes at a concentration of […] daily for 21 days. LX-2002 was mixed in distilled water with 4% DMSO, 30% PEG300, and 5% Tween80 and administered to the skin, joints, or eyes at a concentration of 2 μM daily for 21 days. […] LX-2005 was mixed in distilled water with 4% DMSO, 30% PEG300, and 5% Tween80 and administered to the skin, joints, or eyes at a concentration of 90 μM daily for 21 days. LX-2007 was mixed in distilled water with 4% DMSO, 30% PEG300, and 5% Tween80 and administered to the skin, joints, or eyes at a concentration of 90 μM daily for 21 days. […] LX-3002 was mixed in distilled water with 4% DMSO, 30% PEG300, and 5% Tween80 and administered orally at a concentration of 10 mg/kg daily for 21 days. […] LX-5411 was mixed in 5% PBS and administered orally at a concentration of 10 mg/kg daily for 21 days or administered to the skin, joints, or eyes at a concentration of 3 μM. LX-5701 was mixed in PBS and administered orally at a concentration of 360 mg/kg daily for 21 days. LX-6807 was mixed in saline and administered intraperitoneally at a concentration of 1 mg/kg daily for 21 days. LX-2101 or LX-2102 was mixed in PBS solution with 5% DMSO and administered intraperitoneally at a concentration of 20 mg/kg or 10 mg/kg, respectively, daily for 21 days. The control group received only the solution in the same volume. After the end of drug administration, the methods described in each example below were performed.
Senile osteoporosis is a metabolic bone disease characterized by decreased bone density and a high fracture risk. It occurs in both men and women with aging. The accumulation of senescent cells is known to contribute to osteoporosis by increasing bone resorption by osteoclasts and decreasing bone formation by osteoblasts through the senescence-associated secretory factor (SASP). RNA was extracted from the left femur of mice as described in Example 7-2 WO2023-085787 A1, and qRT-PCR was performed using the synthesized cDNA. […] The amount of each factor after aging was induced was calculated as 100% and compared with the amount of each factor after treatment with the test compound.

C57BL6-ApoE−/− mice = experiment: Atherosclerosis in ApoE-/- mice (p16 mRNA, vascular plaque), Example 27, Table 51; settings: high-fat diet ApoE−/− mice; for p16 mRNA: aortic arch of thoracic aorta, untreated 100%; for Plaque number: thoracic aorta, Oil Red O, untreated 21.4 (±5.7)
Experimental: Fifteen-week-old male C57BL6-ApoE^−/−-mice (SLC) with atherosclerosis induced by a high-fat diet in the same manner as in Example 9-1 of WO2023-085787 A1 were acclimated to the experimental environment for one week and then randomly assigned to experimental and control groups. […] The control group was administered only the solution in the same volume. After the drug administration was terminated, the mice were sacrificed, and RNA was extracted from the aortic arch of the thoracic aorta using the same method as Example 7-2 of WO2023-085787 A1, and qRT-PCR was performed using the synthesized cDNA. In addition, the remaining part of the thoracic aorta was dissected, fixed flat in 4% paraformaldehyde at room temperature for 12 hours, and the vascular plaque was stained with Oil Red O using the same method as Example 23-5. […] The mRNA amount after aging was induced was calculated as 100% and compared with the mRNA amount of p16 after treatment with the test compound.

Row | Compound | Open Field Test Time in Center (naturally aged mice) | Ctsk mRNA (%) [1] | Ocstamp mRNA (%) [1] | Oscar mRNA (%) [1] | Rank mRNA (%) [1] | Trap mRNA (%) [1] | p16 mRNA (C57BL6-ApoE−/− mice) | Plaque number (C57BL6-ApoE−/− mice)
1 | COC(=O)c1ccc([C@H]2c3[nH]c4ccccc4c3C[C@H](C(=O)OC)N2C(=O)CCl)cc1 [LX-405] | 201.5 (±18.3) % |  |  |  |  |  |  | 
2 | S=C(N/N=C1\CCCc2cccnc21)N1CCN(c2ccccn2)CC1 [LX-801] | 241.8 (±17.9) % |  |  |  |  |  |  | 
3 | C[C@@H]1CC[C@@]23C[C@H](O)C(=O)[C@@]2(O)[C@]1(C)[C@H](OC(=O)CCl)C[C@@H](C1=CCn2c(=O)n(-c4ccccc4)c(=O)n2C1)[C@@H]3C [LX-1801, (2S,3aS,4S,5R,7R,8S,8aS,11R)-7-(1,3-Dioxo-2-phenyl-2,3,5,8-tetrahydro-1H-[1,2,4]triazolo[1,2-a]pyridazin-6-yl)-2,3a-dihydroxy-4,8,11-trimethyl-3-oxooctahydro-1H-4,8a-propanoazulen-5-yl 2-Chloroacetate] | 252.9 (±28) % |  |  |  |  |  |  | 
4 | CC1(C)CC[C@]2(NC(=O)C(C)(F)F)CC[C@]3(C)[C@H](C(=O)C=C4[C@@]5(C)C=C(C#N)C(=O)C(C)(C)[C@@H]5CC[C@]43C)[C@@H]2C1 [LX-2101, Omaveloxolone] | 215.3 (±30.8) % | 61 (±12.1) % | 69 (±10.3) % | 79 (±5.6) % | 75 (±2.7) % | 50 (±14.2) % |  | 
5 | CCCC\C=C/C=C/C=C\CCCCCCCC(=O)O [LX-2707, Punicic acid] |  | 64 (±8.6) % | 73 (±3.2) % | 54 (±3.4) % | 67 (±3.4) % | 51 (±5.2) % | 81 (±6.0) % | 19.4 (±3.6)
6 | O=C1C2CCN(CC2)C1CNC(=O)C(F)(F)F (stereo not shown) [LX-5701] |  | 57 (±13.0) % | 70 (±6.7) % | 72 (±7.2) % | 68 (±10.4) % | 63 (±18.4) % | 71 (±12.8) % | 12.7 (±4.6)
7 | Cc1cccc([C@H](C)c2cnc[nH]2)c1C [LX-6807, Dexmedetomidine] |  | 42 (±2.7) % | 53 (±5.1) % | 37 (±2.0) % | 57 (±3.9) % | 48 (±2.1) % | 59 (±4.7) % | 15.3 (±2.4)
8 | Tocofersolan [LX-3001] |  | 67 (±7.2) % | 75 (±3.3) % | 61 (±4.7) % | 56 (±6.3) % | 78 (±6.8) % | 78 (±7.2) % | 17.5 (±4.2)
